For assay [1], the system named is Candida albicans. The experiment in a line: In vitro Fungicidal activity (MFC) against Candida albicans (MY 1055). In kind it is functional.
Assay [2] concerns the target Beta-1,3-glucan synthase (Candida albicans, UniProt O13428). The experiment in a line: Tested for inhibition of Beta-1,3-glucan synthase using a crude membrane of Candida albicans (MY 1208).
The subject of assay [3] is Candida parapsilosis. The experiment in a line: In vitro Fungicidal activity (MFC) against Candida parapsilosis (MY 1010). Format: functional. Particulars: Lodderomyces parapsilosis.
Assay [4] in a line: In vivo anti-Candida activity was determined in a mouse model of disseminated candidiasis (TOKA). In kind it is functional.

Structures are written as SMILES. In brackets after ≈: the same amount, converted by molar mass. Numbered stars: 1 amine (or outer) side, 2 acyl side, 3 side chain; on linkers, the order of the positions; unused ones are H or OH. Bridge positions count the residues as written; N and C are the ends. Square brackets hold non-standard residues; d marks the D form. Peptide text beside a SMILES is read from it. * marks the point of attachment. Orn(4R-OH,5R-OH) = O=C([C@H](C[C@@H](O)[C@@H](O)N[*:3])N[*:1])[*:2]; hTyr(3S-OH,4S-OH) = N[C@H](C(=O)O)[C@H](O)[C@@H](O)c1ccc(O)cc1; Orn(4R-OH) = O=C([C@H](C[C@@H](O)CN[*:3])N[*:1])[*:2]; hTyr(3R-OH) = N[C@H](C(=O)O)[C@H](O)Cc1ccc(O)cc1; X3 = O=C(C[C@@H](O)[C@H](N[*:1])C(=O)[*:2])NO; X13 = CNCC[C@@H](O)[C@H](N[*:1])C(=O)[*:2]; Orn(3R-OH) = NCC[C@@H](O)[C@H](N)C(=O)O; Pro(3S-OH) = O=C(O)[C@H]1NCC[C@@H]1O; Hyp = O=C(O)[C@@H]1C[C@@H](O)CN1; X1 = CCC(C)CC(C)CCCCCCCCC(=O)*

Sequence of Beta-1,3-glucan synthase (O13428 whole entry): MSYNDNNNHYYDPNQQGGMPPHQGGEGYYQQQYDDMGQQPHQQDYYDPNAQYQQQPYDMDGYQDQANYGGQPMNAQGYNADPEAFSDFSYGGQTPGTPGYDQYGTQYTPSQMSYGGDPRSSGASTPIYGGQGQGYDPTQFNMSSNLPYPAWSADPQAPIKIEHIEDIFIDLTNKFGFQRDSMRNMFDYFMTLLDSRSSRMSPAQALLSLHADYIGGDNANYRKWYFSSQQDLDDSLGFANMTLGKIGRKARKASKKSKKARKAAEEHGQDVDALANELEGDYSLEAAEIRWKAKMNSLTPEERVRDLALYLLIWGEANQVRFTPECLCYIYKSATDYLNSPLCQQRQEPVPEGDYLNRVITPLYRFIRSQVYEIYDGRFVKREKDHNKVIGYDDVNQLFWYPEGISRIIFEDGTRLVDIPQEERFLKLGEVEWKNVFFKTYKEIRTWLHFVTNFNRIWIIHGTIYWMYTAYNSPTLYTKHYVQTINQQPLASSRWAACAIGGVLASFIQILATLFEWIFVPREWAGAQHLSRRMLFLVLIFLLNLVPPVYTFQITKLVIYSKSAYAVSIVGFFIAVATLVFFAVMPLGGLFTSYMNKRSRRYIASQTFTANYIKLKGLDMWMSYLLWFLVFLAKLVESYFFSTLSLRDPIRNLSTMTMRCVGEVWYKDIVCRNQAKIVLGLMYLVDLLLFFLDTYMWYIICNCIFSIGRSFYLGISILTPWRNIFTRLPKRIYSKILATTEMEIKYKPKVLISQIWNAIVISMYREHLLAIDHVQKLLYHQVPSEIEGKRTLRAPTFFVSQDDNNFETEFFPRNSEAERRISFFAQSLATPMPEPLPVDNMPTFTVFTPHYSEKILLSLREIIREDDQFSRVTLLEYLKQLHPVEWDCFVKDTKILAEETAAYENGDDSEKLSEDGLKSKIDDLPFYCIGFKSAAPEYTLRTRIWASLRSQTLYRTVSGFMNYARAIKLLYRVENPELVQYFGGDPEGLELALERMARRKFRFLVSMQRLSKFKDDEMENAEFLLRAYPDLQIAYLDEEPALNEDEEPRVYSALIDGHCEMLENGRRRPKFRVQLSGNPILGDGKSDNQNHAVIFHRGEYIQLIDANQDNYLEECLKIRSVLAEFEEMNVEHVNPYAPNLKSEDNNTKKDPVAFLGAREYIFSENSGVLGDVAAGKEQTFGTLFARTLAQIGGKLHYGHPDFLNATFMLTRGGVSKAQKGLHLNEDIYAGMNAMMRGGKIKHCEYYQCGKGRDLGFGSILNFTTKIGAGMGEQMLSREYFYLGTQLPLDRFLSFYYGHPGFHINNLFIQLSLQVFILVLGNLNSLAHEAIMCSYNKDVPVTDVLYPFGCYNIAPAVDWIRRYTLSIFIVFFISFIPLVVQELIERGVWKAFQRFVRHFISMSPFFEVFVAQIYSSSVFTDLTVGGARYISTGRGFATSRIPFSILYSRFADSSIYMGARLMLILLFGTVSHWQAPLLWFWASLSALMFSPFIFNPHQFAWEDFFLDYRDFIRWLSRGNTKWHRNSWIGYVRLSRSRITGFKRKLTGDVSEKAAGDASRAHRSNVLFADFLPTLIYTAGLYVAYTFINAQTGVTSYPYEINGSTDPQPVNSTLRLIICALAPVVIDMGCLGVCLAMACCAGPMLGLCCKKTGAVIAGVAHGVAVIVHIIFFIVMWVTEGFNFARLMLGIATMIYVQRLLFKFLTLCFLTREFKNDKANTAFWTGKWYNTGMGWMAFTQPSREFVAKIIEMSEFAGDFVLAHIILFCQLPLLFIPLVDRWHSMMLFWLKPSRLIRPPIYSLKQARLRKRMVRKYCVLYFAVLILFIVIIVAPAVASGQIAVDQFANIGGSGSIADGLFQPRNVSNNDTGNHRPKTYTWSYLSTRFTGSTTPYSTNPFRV

For orientation: MFC means the smallest concentration meeting the test's criterion for killing the fungus. High values mean weaker fungicidal potency, low ones greater fungicidal potency. Usually IC50 stands for the concentration that gives 50% inhibition. With `CCC(C)CC(C)CCCCCCCCC(=O)N[C@H]1C[C@@H](O)[C@@H](O)NC(=O)[C@@H]2[C@@H](O)CCN2C(=O)[C@H]([C@H](O)CCN)NC(=O)[C@H]([C@H](O)[C@@H](O)c2ccc(O)cc2)NC(=O)[C@@H]2C[C@@H](O)CN2C(=O)[C@H]([C@@H](C)O)NC1=O` (stereo partly drawn) (X1-[Orn(4R-OH,5R-OH)]T[Hyp][hTyr(3S-OH,4S-OH)][Orn(3R-OH)][Pro(3S-OH)]; lactam 1-C), the MFC is less than 0.06 µg/mL in assay [1] and 0.5 µg/mL (≈ 0.476 µM) in assay [3]. Besides, the IC50 in assay [2] is 10 nM. The ED99.9 in assay [4] came to 0.375 mg/kg.
In the same order, the values of `CCC(C)CC(C)CCCCCCCCC(=O)N[C@H]1C[C@@H](O)[C@@H](O)NC(=O)[C@@H]2[C@@H](O)CCN2C(=O)[C@H]([C@H](O)CCNC)NC(=O)[C@H]([C@H](O)[C@@H](O)c2ccc(O)cc2)NC(=O)[C@@H]2C[C@@H](O)CN2C(=O)[C@H]([C@@H](C)O)NC1=O` (stereo partly drawn) (X1-[Orn(4R-OH,5R-OH)]T[Hyp][hTyr(3S-OH,4S-OH)][X13][Pro(3S-OH)]; lactam 1-C) are 2 µg/mL (≈ 1.88 µM), 2 µg/mL (≈ 1.88 µM), 7 nM and 0.375 mg/kg.
The matching figures for `CCC(C)CC(C)CCCCCCCCC(=O)N[C@H]1C[C@@H](O)CNC(=O)[C@@H]2[C@@H](O)CCN2C(=O)[C@H]([C@H](O)CC(=O)NO)NC(=O)[C@H]([C@H](O)Cc2ccc(O)cc2)NC(=O)[C@@H]2C[C@@H](O)CN2C(=O)[C@H]([C@@H](C)O)NC1=O` (stereo partly drawn) (X1-[Orn(4R-OH)]T[Hyp][hTyr(3R-OH)][X3][Pro(3S-OH)]; lactam 1-C): 0.25 µg/mL (≈ 0.238 µM), 4 µg/mL (≈ 3.81 µM), 80 nM and 6 mg/kg.

Values taken from ChEMBL document CHEMBL1128045, “Antifungal lipopeptides: Structure-activity relationships of 3-hydroxyglutamine-modified pneumocandin B0 derivatives” (Bioorg Med Chem Lett, 1995).
